{"source": "patent US6251898A", "about": "“Medical use of fluorenone derivatives for treating and preventing brain and spinal injury” (Questcor Pharmaceuticals, Inc., priority 1999, dated 2001)", "system": "UC11-MG human astrocytoma cells", "assay": "D-aspartate (excitotoxin) release by hypo-osmotically stressed astrocytoma cells", "format": "cell-based", "conditions": "for IC50: Homo sapiens, UC11MG, hypo-osmotic stress, about 145 mOsm, AUC-based, read-out: IC50 value (suppression of excitotoxin / D-aspartate release by stressed astrocyte cells); for Comparative potency: relative to L-644,711 (100% = benchmark); for Fold potency versus L-644,711: inhibition of aspartate release, compared to L-644,711", "source_text": "The in vitro tests described in this example used UC11-MG human astrocytoma cells, obtained from the University of Cincinnati, and described in Liwnicz et al 1986 and Lomneth et al 1989. Cell culture reagents (including RPMI 1640, fetal bovine serum, trypsin, and gentamicin) were obtained from Gibco (Gaithersburg, Md.). Radiolabelled D-[2,3-^3 H]aspartate was obtained from Amersham Life Sciences (Buckinghamshire, England). ScintiVerse II scintillation fluid was obtained from Fisher Scientific (Pittsburgh, Pa.). All other chemicals were obtained from Sigma Chemical Co. (St. Louis, Mo.). Osmolarities of solutions were measured using the Advance DigiMatic Osmometer Model 3D II (Advanced Instruments Inc., Mass.).\nThe UC11-MG astrocytoma cells were cultured in 75 ml vented flasks at 37° C. inside a humidified incubator in 5% CO2 /95% air. The cells were grown in RPMI Medium 1640 supplemented with 10% fetal bovine serum and […] gentamicin. At approximately 90% confluence, the cells were detached and suspended using a 0.0625% trypsin solution in Buffer A (137 mM NaCl, 5.37 mM KCl, 5.55 mM glucose, 4.17 mM NaHCO3, and 0.54 mM EDTA disodium salt, pH 7.4). The cells were then plated onto 6-well tissue culture plates at a seeding ratio of 4 plates per flask and 4 ml of cell-media suspension per well. The plated cells were used in experiments the next day at approximately 90% confluence. Plates that appeared to be more than 95% confluent were not used, because higher levels of confluence led to uncontrollable differentials in exposure of the cells to culture media and labelled aspartate. All tests were performed in triplicate. All media collections were done at 5 minute intervals, using pipettes, and were followed by promptly loading fresh buffer into each well before any drying occurred. All buffer samples collected in this manner were loaded into scintillation vials, mixed with 5 ml scintillation fluid, and counted for 1 minute in a scintillation counter (Beckman LS8000, Fullerton, Calif.).\nPrior to D-aspartate exposure, the wells were washed three times under sterile conditions with 3 ml of 37° C. Buffer B (122 mM NaCl, 3.3 mM KCl, 1.2 mM CaCl2, 0.4 mM MgSO4, 1.2 mM KH2 PO4, 25 mM Hepes, 10 mM glucose, pH 7.4).\nThe cells were then loaded with 0.5 μCi/ml of D-aspartate, and incubated at 37° C. for 30 min. Cells were then washed four times with Buffer B, and the last washing fluid was left on the cells. The plates were then placed on an orbital shaker and maintained at 37° C.\nBaseline aspartate release levels (prior to drug treatment) were determined by incubating the cells with normal Buffer B (285 mOsm) for 15 minutes, while buffer was collected every 5 minutes.\nAfter the buffer was collected from a well at the 15 minute mark, the next set of normal Buffer B added to that well contained a test compound at a known concentration; each compound was tested over a range of concentrations. Cells were then incubated for two 5 minute intervals with solutions of test compounds in normal Buffer B. In some tests which used buffers containing relatively high concentrations of a test drug with limited solubility in water, DMSO was added to the mixture to increase the solubility of the compound in water.\nBeginning at the 25-minute mark, the cells were stimulated to begin releasing aspartate by loading a well with hypo-osmotic buffer, prepared by diluting Buffer B with an equal volume of distilled and deionized H2 O, resulting in an osmolarity of about 145 mOsm. This hypo-osmoticsolution caused the cells to begin taking in excess water, to try to reestablish the normal osmotic gradients that exist across the cell membranes. The water-induced swelling and stress then began to induce release of aspartate by the cells, and the amount of aspartate released by the swollen astrocyte cells was measured by removing the buffer every 5 minutes and testing it in a scintillation counter."}
{"smiles": "CCC[C@]12CCC(=O)C=C1c1c(cc(OCc3ccc(C(=O)O)cc3)c(Cl)c1Cl)C2", "note": "[GERI-E5, Sodium R(+)-4-[(5,6-dichloro-2,3,9,9a-tetrahydro-3-oxo-9a-propyl-1H-fluoren-7-yl)oxymethyl]benzoate]", "values": [{"measurement": "IC50", "result": 8, "unit": "µM"}, {"measurement": "Comparative potency", "result": "3,294%"}]}
{"smiles": "CCC[C@]12CCC(=O)C=C1c1c(cc(OCC(=O)NCc3ccccn3)c(Cl)c1Cl)C2", "note": "[GERI-AmE4, R(+)-N-[(2-pyridylmethyl][5,6-dichloro-2,3,9,9a-tetrahydro-3-oxo-9a-propyl-1H-fluoren-7-yl)oxy]acetamide]", "values": [{"measurement": "IC50", "result": 11.6, "unit": "µM"}, {"measurement": "Comparative potency", "result": "2,272%"}]}
{"smiles": "CCC[C@]12CCC(=O)C=C1c1c(cc(OCC(=O)NCc3ccccc3)c(Cl)c1Cl)C2", "note": "[GERI-AmE3, R(+)-N-benzyl-[(5,6-dichloro-2,3,9,9a-tetrahydro-3-oxo-9a-propyl-1H-fluoren-7-yl)oxy]acetamide]", "values": [{"measurement": "IC50", "result": 31.9, "unit": "µM"}, {"measurement": "Comparative potency", "result": 826, "unit": "%"}]}
{"smiles": "CCC[C@]12CCC(=O)C=C1c1c(cc(OCc3cccc(C(=O)O)c3)c(Cl)c1Cl)C2", "note": "[GERI-E4, Sodium R(+)-3-[(5,6-dichloro-2,3 9,9a-tetrahydro-3-oxo-9a-propyl-1H-fluoren-7-yl)oxymethyl]benzoate]", "values": [{"measurement": "IC50", "result": 7.8, "unit": "µM"}, {"measurement": "Fold potency versus L-644,711", "result": "~34", "unit": "fold"}, {"measurement": "Comparative potency", "result": "3,378%"}]}
{"smiles": "CCC[C@]12CCC(=O)C=C1c1c(cc(OCC(=O)O)c(Cl)c1Cl)C2", "note": "[L-644,711, R(+)-[(5,6-dichloro-2,3,9,9a-tetrahydro-3-oxo-9a-propyl-1H-fluoren-7-yl)oxy]acetic acid, reference compound]", "values": [{"measurement": "IC50", "result": 264, "unit": "µM"}]}
{"smiles": "CCC[C@]12CCC(=O)C=C1c1c(cc(OC(C)=O)c(Cl)c1Cl)C2", "note": "[GERI-Est1, R-(+)-7-acetoxy-5,6-dichloro-9a-propyl-2,3,9,9a-tetrahydro-1H-fluoren-3-one]", "values": [{"measurement": "IC50", "result": 13.9, "unit": "µM"}, {"measurement": "Comparative potency", "result": "1,896%"}]}
{"smiles": "CCC[C@]12CCC(=O)C=C1c1c(cc(OCC(=O)NCCCn3ccnc3)c(Cl)c1Cl)C2", "note": "[GERI-AmE5, R(+)-N-[3-(1-imidazolyl)-propyl][(5,6-dichloro-2,3,9,9a-tetrahydro-3-oxo-9a-propyl-1H-fluoren-7-yl)oxy]acetamide]", "values": [{"measurement": "IC50", "result": 39.8, "unit": "µM"}, {"measurement": "Fold potency versus L-644,711", "result": "~7", "unit": "fold"}, {"measurement": "Comparative potency", "result": 662, "unit": "%"}]}
{"smiles": "CCC[C@]12CCC(=O)C=C1c1c(cc(OCC(CO)(CO)CO)c(Cl)c1Cl)C2", "note": "[GERI-E1, R-(+)-5,6-dichloro-7-[3-hydroxy-2,2-bis-(hydroxymethyl)propyloxy]-9a-propyl-2,3,9,9a-tetrahydro-1H-fluoren-3-one]", "values": [{"measurement": "IC50", "result": 29.5, "unit": "µM"}, {"measurement": "Comparative potency", "result": 893, "unit": "%"}]}
{"smiles": "CCC[C@]12CCC(=O)C=C1c1c(cc(OCOC(C)=O)c(Cl)c1Cl)C2", "note": "[GERI-E13, R-(+)-7-(acetoxymethoxy)-5,6-dichloro-9a-propyl-2,3,9,9a-tetrahydro-1H-fluoren-3-one]", "values": [{"measurement": "IC50", "result": 19.2, "unit": "µM"}, {"measurement": "Comparative potency", "result": "1,372%"}]}
{"smiles": "CCC[C@]12CCC(=O)C=C1c1c(cc(OCC(=O)NCC(OC)OC)c(Cl)c1Cl)C2", "note": "[GERI-AmE1, R(+)-N-[2,2-(dimethoxy)-ethyl][(5,6-dichloro-2,3,9,9a-tetrahydro-3-oxo-9a-propyl-1H-fluoren-7-yl)oxy]acetamide]", "values": [{"measurement": "IC50", "result": 19.4, "unit": "µM"}, {"measurement": "Comparative potency", "result": "1,358%"}]}
{"smiles": "CCC[C@]12CCC(=O)C=C1c1c(cc(OCc3ccccc3C(=O)O)c(Cl)c1Cl)C2", "note": "[GERI-E3, Sodium R(+)-2-[(5,6-dichloro-2 3,9,9a-tetrahydro-3-oxo-9a-propyl-1H-fluoren-7-yl)oxymethyl]benzoate]", "values": [{"measurement": "IC50", "result": 7.9, "unit": "µM"}, {"measurement": "Comparative potency", "result": "3,335%"}]}
